Measured values as given in patent publication US10159249B2 (BAYER CROPSCIENCE AKTIENGESELLSCHAFT, priority 2013, dated 2018).
Read-outs that look alike come from different tables or passages of the source. Marks after values point to notes of the source that are not given here.

Tests used:
[1] = tested on: transgenic soybean T1 plants expressing PfHPPD-Evo40; format: in vivo; conditions: for number of events, herbicide tolerance class 0 (41%-100% damaged leaf area) / number of events, herbicide tolerance class 1 (16%-40% damaged leaf area) / number of events, herbicide tolerance class 2 (6%-15% damaged leaf area) / number of events, herbicide tolerance class 3 (0%-5% damaged leaf area): soybean PfHPPD-Evo40, scored after 21 days
[2] = tested on: Non-transformed maize plants; test: Greenhouse trial, maize plants, leaf damage; format: in vivo; conditions: 25 g AI/ha
Method: (§1) Regenerated T0 events from tissue culture were transplanted into two inch square pots with synthetic soil (Fafard® Mix) and controlled-released fertilizer (Haifa Multicote™; polymer-coated controlled-release fertilizer, NPK Pro 18-6-12+Micronutrients) and cultivated in the greenhouse (GH) under supplementary high pressure sodium light for 12 days at a maximum of 30° C. during the day and a minimum of 22° C. at night. Fully recovered plants were transferred into five inch square pots filled with synthetic soil and control released fertilizer under the same environmental conditions. […] All herbicide treatments were conducted in a DeVries Tracker Sprayer system with standard application protocols, which are well known in the art. As a spray control T0 events have been sprayed with the adjunvant mixture lacking the herbicide.

[3] = tested on: Digitaria horizontalis; test: Field trial, weed efficacy, post applied; format: in vivo; conditions: (A) 50 g ai/ha; application at 2 tillers; assessment 14 days after application
[4] = target: PfHPPD-Evo41 (SEQ ID No 29) (Pseudomonas sp., UniProt P80064, A172V/A339Q/A53E/D148E/D45N/E105D/E287Q/E300V/E334P/F143Y/G286D/G335W/H150N/H254A/H63N/I158V/I187A/I249V/K338A/K92N/L18F/N24G/N280D/S245T/S257K/S301E/T205S/V65I); test: biochemical; design: species or system Pseudomonas fluorescens
[5] = target: FMP37 (SEQ ID No 9) (Blepharisma japonicum, UniProt A8R3H6); test: HPPD activity in presence of inhibitor, HGD assay; format: biochemical
Method: (§2) With the HGD assay HPPD activity was measured at room temperature by adding appropriate amounts of HPPD to a solution of 200 mM Tris-HCl pH 7.6, 10 mM ascorbate, 20 μM FeSO4, 650 units of catalase, 8 μg HGA dioxygenase (HGA: homogentisate) and 600 μM HPP in a total volume of 1 ml. Initial reaction rates were determined from the increase in absorbance at 318 nm due to the formation of maleylacetoacetate (ε318=11,900 M-1 cm-1).
(§3) In cases, the symbol “>” is used this means that the value was far higher than the one indicated but could not be precisely calculated within in the range of concentration of inhibitor tested.
(§4) In the 1st column of Table 1, the HPPD employed in the assay is named and in the 2nd column of Table 1, the corresponding SEQ ID No of present invention is disclosed.

[6] = target: FMP27 (SEQ ID No 17) (Kordia algicida, UniProt A9DQF2); test: HPPD activity in presence of inhibitor, HGD assay; format: biochemical
Method: as §2, §3, §4

[7] = target: Avena sativa Δ A109 (SEQ ID No 43) (Avena sativa, UniProt A0ACD5V6K6, DEL109-109); test: HPPD activity in presence of inhibitor, HGD assay; format: biochemical
Method: as §2, §3, §4

[8] = tested on: Axmi309H-Evo41 (SEQ ID No 37); test: HPPD activity in presence of inhibitor, HGD assay; format: biochemical, Pseudomonas agarici
Method: as §2, §3, §4

[9] = tested on: Axmi309H (SEQ ID No 35); test: HPPD activity in presence of inhibitor, HGD assay; format: biochemical, Pseudomonas agarici
Method: as §2, §3, §4

[10] = tested on: Ipomoea aristolochiaefolia; conditions: application at 6 leaf stage, assessment 14 days after application
[11] = target: PfHPPD-Evo33 (SEQ ID No 25) (Pseudomonas sp., UniProt P80064, A172V/A53E/D148E/D45N/E105D/E287Q/E300V/E334P/F143Y/G286D/G335W/H150N/H254A/H63N/I158V/I187A/I249V/K92N/L18F/N24G/N280D/S245T/S257K/S301E/T205S/V65I); test: biochemical; design: species or system Pseudomonas fluorescens
[12] = tested on: Amaranthus retroflexus; conditions: (A) 50 g ai/ha; application at 6 leaf stage; assessment 14 days after application
[13] = target: PfHPPD-Evo40 (SEQ ID No 27) (Pseudomonas sp., UniProt P80064, A172V/A339E/A53E/D148E/D45N/E105D/E287Q/E300V/E334P/F143Y/G286D/G335S/H150N/H254A/H63N/I158V/I187A/I249V/K92N/L18F/N24G/N280D/S245T/S257K/S301E/T205S/V65I); test: biochemical; design: species or system Pseudomonas fluorescens
[14] = tested on: Control maize plants (EPSPS selectable marker gene, no HPPD variant); test: Greenhouse trial, maize T0 plants, leaf area damage; format: in vivo; conditions: for number of events, herbicide tolerance class 0 (41%-100% damaged leaf area) / number of events, herbicide tolerance class 1 (16%-40% damaged leaf area) / number of events, herbicide tolerance class 2 (6%-15% damaged leaf area) / number of events, herbicide tolerance class 3 (0%-5% damaged leaf area): maize Control
Method: as §1
A rating of “1” was assigned to plants having a moderate tolerance with 16% to 40% damage of total leaf area. A rating of “2” was assigned to plants with good tolerance within the range of 6% to 15% damage of total leaf area.

[15] = room temperature, 600 μM HPP, molar concentration
[16] = 25 g AI/ha, evaluation 9 days after treatment
[17] = 50 g AI/ha, six days after application
[18] = 100 g AI/ha, six days after application

Chain of PfHPPD-Evo41 (SEQ ID No 29) (P80064 1-354 with tags or gaps with the stated changes limits assumed): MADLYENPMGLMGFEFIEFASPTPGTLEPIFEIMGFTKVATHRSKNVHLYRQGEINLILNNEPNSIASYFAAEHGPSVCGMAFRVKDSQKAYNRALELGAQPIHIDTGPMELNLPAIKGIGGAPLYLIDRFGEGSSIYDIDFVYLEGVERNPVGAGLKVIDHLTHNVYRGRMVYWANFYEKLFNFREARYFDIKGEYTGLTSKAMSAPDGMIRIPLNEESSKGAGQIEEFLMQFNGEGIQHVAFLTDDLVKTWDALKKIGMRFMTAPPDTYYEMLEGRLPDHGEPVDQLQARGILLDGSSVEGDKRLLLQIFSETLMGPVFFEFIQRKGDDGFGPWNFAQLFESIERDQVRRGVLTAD
Chain of Avena sativa Δ A109 (SEQ ID No 43) (A0ACD5V6K6 entry or part of it DEL109-109): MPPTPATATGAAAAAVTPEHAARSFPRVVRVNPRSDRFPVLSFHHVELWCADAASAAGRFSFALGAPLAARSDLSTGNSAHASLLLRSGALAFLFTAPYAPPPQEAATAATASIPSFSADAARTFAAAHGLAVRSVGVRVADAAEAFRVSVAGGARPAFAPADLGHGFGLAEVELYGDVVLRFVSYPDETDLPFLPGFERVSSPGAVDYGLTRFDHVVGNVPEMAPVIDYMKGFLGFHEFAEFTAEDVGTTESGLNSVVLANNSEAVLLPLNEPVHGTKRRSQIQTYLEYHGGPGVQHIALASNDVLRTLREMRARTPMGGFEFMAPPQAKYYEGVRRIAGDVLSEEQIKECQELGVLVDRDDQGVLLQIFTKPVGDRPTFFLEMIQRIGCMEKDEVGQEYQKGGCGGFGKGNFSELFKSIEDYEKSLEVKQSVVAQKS
Chain of PfHPPD-Evo40 (SEQ ID No 27) (P80064 1-354 with tags or gaps with the stated changes limits assumed): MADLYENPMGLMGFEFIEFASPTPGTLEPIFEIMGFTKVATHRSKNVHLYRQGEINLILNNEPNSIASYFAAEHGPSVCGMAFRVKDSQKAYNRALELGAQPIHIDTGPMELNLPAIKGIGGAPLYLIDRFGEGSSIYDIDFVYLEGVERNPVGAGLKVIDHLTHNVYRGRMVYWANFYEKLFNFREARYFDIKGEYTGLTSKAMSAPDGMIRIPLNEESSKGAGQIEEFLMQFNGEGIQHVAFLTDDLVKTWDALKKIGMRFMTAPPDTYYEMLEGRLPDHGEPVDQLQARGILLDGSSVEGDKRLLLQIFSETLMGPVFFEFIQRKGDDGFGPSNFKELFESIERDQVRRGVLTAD
Chain of PfHPPD-Evo33 (SEQ ID No 25) (P80064 1-354 with tags or gaps with the stated changes limits assumed): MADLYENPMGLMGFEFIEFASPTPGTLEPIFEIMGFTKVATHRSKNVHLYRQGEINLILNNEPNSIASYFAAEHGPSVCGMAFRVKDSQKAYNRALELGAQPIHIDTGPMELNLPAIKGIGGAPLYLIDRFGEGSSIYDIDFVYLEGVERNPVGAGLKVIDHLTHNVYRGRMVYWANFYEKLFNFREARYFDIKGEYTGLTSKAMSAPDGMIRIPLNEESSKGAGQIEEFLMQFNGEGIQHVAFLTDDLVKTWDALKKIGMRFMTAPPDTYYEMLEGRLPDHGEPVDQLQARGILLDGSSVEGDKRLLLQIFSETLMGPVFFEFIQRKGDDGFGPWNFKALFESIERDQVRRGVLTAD
Chain of FMP27 (SEQ ID No 17) (A9DQF2 1-387): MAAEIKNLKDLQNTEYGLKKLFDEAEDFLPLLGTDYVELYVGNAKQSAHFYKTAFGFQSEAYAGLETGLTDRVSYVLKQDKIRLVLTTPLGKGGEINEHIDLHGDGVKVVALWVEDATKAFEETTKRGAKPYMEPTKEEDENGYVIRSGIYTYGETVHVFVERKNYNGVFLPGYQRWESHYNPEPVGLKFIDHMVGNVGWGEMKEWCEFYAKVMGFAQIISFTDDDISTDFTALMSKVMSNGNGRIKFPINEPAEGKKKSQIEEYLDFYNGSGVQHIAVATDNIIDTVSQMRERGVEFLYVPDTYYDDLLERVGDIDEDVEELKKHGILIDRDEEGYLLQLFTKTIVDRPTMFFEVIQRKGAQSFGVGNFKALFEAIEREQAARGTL
Chain of FMP37 (SEQ ID No 9) (A8R3H6 1-382): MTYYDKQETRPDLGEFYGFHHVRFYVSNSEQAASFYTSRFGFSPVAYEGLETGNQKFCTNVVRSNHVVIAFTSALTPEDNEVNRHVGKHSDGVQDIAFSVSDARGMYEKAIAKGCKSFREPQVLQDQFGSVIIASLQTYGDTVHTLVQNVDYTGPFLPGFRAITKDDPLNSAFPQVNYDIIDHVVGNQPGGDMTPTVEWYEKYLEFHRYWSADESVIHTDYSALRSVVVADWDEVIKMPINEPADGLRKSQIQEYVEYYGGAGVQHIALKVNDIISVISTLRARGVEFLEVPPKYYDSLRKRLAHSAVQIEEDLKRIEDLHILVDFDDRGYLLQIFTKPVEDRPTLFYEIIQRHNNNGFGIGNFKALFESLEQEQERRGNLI

CSc1c(C(F)(F)F)ccc(C(=O)Nc2nnnn2C)c1Cl
herbicide tolerance ([1]; most soybean T1 plants expressing PfHPPD-Evo40, 25 g AI/ha): high tolerance
number of events, herbicide tolerance class 0 (41%-100% damaged leaf area) ([1]; 6.25 g AI/ha): 0
number of events, herbicide tolerance class 1 (16%-40% damaged leaf area) ([1]; 6.25 g AI/ha): 0
number of events, herbicide tolerance class 2 (6%-15% damaged leaf area) ([1]; 6.25 g AI/ha): 0
number of events, herbicide tolerance class 3 (0%-5% damaged leaf area) ([1]; 6.25 g AI/ha): 4
number of events, herbicide tolerance class 0 (41%-100% damaged leaf area) ([1]; 25 g AI/ha): 2
number of events, herbicide tolerance class 1 (16%-40% damaged leaf area) ([1]; 25 g AI/ha): 7
number of events, herbicide tolerance class 2 (6%-15% damaged leaf area) ([1]; 25 g AI/ha): 1
number of events, herbicide tolerance class 3 (0%-5% damaged leaf area) ([1]; 25 g AI/ha): 6
number of events, herbicide tolerance class 0 (41%-100% damaged leaf area) ([1]; 50 g AI/ha): 0
number of events, herbicide tolerance class 1 (16%-40% damaged leaf area) ([1]; 50 g AI/ha): 4
number of events, herbicide tolerance class 2 (6%-15% damaged leaf area) ([1]; 50 g AI/ha): 0
number of events, herbicide tolerance class 3 (0%-5% damaged leaf area) ([1]; 50 g AI/ha): 0
number of events, herbicide tolerance class 0 (41%-100% damaged leaf area) ([1]; 75 g AI/ha): 0
number of events, herbicide tolerance class 1 (16%-40% damaged leaf area) ([1]; 75 g AI/ha): 4
number of events, herbicide tolerance class 2 (6%-15% damaged leaf area) ([1]; 75 g AI/ha): 0
number of events, herbicide tolerance class 3 (0%-5% damaged leaf area) ([1]; 75 g AI/ha): 0
leaf damage [2]: 100%
Efficacy (%) Digitaria horizontalis [3]: 70%
IC50 [4]: 200 nM
% inhibition at 0.2 μM ([4]; 0.2 μM inhibitor, HGD assay): 50%
IC50 [5]: 5010 nM
inhibition at 0.2 µM ([5]; 0.2 μM inhibitor, HGD assay): 0%
IC50 [6]: 316 nM
inhibition at 0.2 µM ([6]; 0.2 μM inhibitor, HGD assay): 29%
IC50 [7]: 2000 nM
inhibition at 0.2 µM ([7]; 0.2 μM inhibitor, HGD assay): 8%
% inhibition at 0.2 μM ([8]; 0.2 μM inhibitor): 26%
pI50 [8, 15]: 6.5
% inhibition at 0.2 μM ([9]; 0.2 μM inhibitor): 78%
pI50 [9, 15]: 7.1
Efficacy (%) Ipomoea aristolochiaefolia ([10]; (A) 25 g ai/ha): 10%
Efficacy (%) Ipomoea aristolochiaefolia ([10]; (A) 50 g ai/ha): 15%
IC50 [11]: 251 nM
% inhibition at 0.2 μM ([11]; 0.2 μM inhibitor, HGD assay): 39%
Efficacy (%) Amaranthus retroflexus [12]: 65%
IC50 [13]: 251 nM
% inhibition at 0.2 μM ([13]; 0.2 μM inhibitor, HGD assay): 40%
bleaching symptoms ([14]; all control events, 25 g of AI/ha): severe bleaching symptoms
leaf damage ([14]; control maize T0 events without HPPD variant, 25 g AI/ha): 100%
number of events, herbicide tolerance class 0 (41%-100% damaged leaf area) [14, 16]: 5*
number of events, herbicide tolerance class 1 (16%-40% damaged leaf area) [14, 16]: 0
number of events, herbicide tolerance class 2 (6%-15% damaged leaf area) [14, 16]: 0
number of events, herbicide tolerance class 3 (0%-5% damaged leaf area) [14, 16]: 0
number of events, herbicide tolerance class 0 (41%-100% damaged leaf area) [14, 17]: 4
number of events, herbicide tolerance class 1 (16%-40% damaged leaf area) [14, 17]: 0
number of events, herbicide tolerance class 2 (6%-15% damaged leaf area) [14, 17]: 0
number of events, herbicide tolerance class 3 (0%-5% damaged leaf area) [14, 17]: 0
number of events, herbicide tolerance class 0 (41%-100% damaged leaf area) [14, 18]: 50
number of events, herbicide tolerance class 1 (16%-40% damaged leaf area) [14, 18]: 0
number of events, herbicide tolerance class 2 (6%-15% damaged leaf area) [14, 18]: 0
number of events, herbicide tolerance class 3 (0%-5% damaged leaf area) [14, 18]: 0
